Legend:
Assay type in all cases: in vivo
[1] = tested on: Diabrotica Balteata (Corn Root Worm); assay: Example B1: Diabrotica balteata (corn root worm), maize sprouts sprayed, L2 larvae; settings: 96 h, application rate of 200 ppm, 4 days after infestation, L2 larvae, read-out: control in at least one of the two categories (mortality or growth inhibition)
Method in brief: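 Larvae at L2 stage, 6 to 10 per well, feed on dried, spray-treated maize sprouts set on agar. Evaluation after 4 days compares mortality and growth inhibition with untreated samples.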

[2] = tested on: Chilo suppressalis (Striped Rice Stemborer); assay: Example B3: Chilo suppressalis (striped rice stemborer), artificial diet, L2 larvae; settings: 144 h, application rate of 200 ppm, 6 days after infestation, L2 larvae, read-out: control in at least one of the three categories (mortality, anti-feedant effect, or growth inhibition)
Method in brief: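 Scoring covers mortality, anti-feedant effect and growth inhibition at 6 days post-infestation, relative to untreated diet, with activity defined as at least one category above untreated. Test solutions were aqueous, made from 10'000 ppm DMSO stocks, and applied to artificial diet before drying and infestation with L2 larvae.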

[3] = tested on: Plutella xylostella (Diamond Back Moth); assay: Example B4: Plutella xylostella (diamond back moth), artificial diet, eggs, 24-well; settings: 192 h, application rate of 200 ppm, 8 days after infestation, eggs, read-out: control in at least one of the two categories (mortality or growth inhibition)
Experimental: 24-well microtiter plates with artificial diet were treated with aqueous test solutions prepared from 10′000 ppm DMSO stock solutions by pipetting. After drying, Plutella eggs were pipetted through a plastic stencil onto a gel blotting paper and the plate was closed with it. The samples were assessed for mortality and growth inhibition in comparison to untreated samples 8 days after infestation.

[4] = tested on: Myzus persicae (Green Peach Aphid); assay: Example B5: Myzus persicae (green peach aphid) feeding/contact activity, sunflower leaf discs; settings: foliar, 144 h, application rate of 200 ppm, 6 days after infestation
Experimental: Sunflower leaf discs were placed onto agar in a 24-well microtiter plate and sprayed with aqueous test solutions prepared from 10′000 ppm DMSO stock solutions. After drying, the leaf discs were infested with an aphid population of mixed ages. The samples were assessed for mortality 6 days after infestation.

[5] = tested on: Myzus persicae (Green Peach Aphid); assay: Example B6: Myzus persicae (green peach aphid) intrinsic activity, sucrose solution; settings: 120 h, test rate of 12 ppm, 5 days after infestation, intrinsic activity, read-out: mortality
Method in brief: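 Mortality was read 5 days after infestation. Aphids on pea seedlings fed through a stretched Parafilm membrane on inverted 24-well plates containing sucrose solution mixed with test compound, which was diluted from 10′000 ppm DMSO stock.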

[6] = tested on: Spodoptera littoralis (Egyptian Cotton Leaf Worm); assay: Example B7: Spodoptera littoralis (Egyptian cotton leaf worm), cotton leaf discs sprayed, L1 larvae; settings: foliar, 72 h, application rate of 200 ppm, 3 days after infestation, L1 larvae, read-out: control in at least one of the three categories (mortality, anti-feedant effect, or growth inhibition)
Method in brief: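 Spray application onto agar-supported cotton leaf discs used aqueous solutions derived from 10′000 ppm DMSO stocks. Once dry, discs were infested with five L1 larvae and evaluated after 3 days for mortality, anti-feeding and growth inhibition relative to untreated controls.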

[7] = tested on: Euschistus heros (Neotropical Brown Stink Bug); assay: Example B2: Euschistus heros (neotropical brown stink bug), soybean leaves sprayed, N2 nymphs; settings: 120 h, application rate of 200 ppm, 5 days after infestation, N2 nymphs, read-out: control in at least one of the two categories (mortality or growth inhibition)
Experimental: Soybean leaves on agar in 24-well microtiter plates were sprayed with aqueous test solutions prepared from 10′000 ppm DMSO stock solutions. After drying the leaves were infested with N2 nymphs. The samples were assessed for mortality and growth inhibition in comparison to untreated samples 5 days after infestation.

C[C@@H](c1ncnn1-c1ccc(C#N)cn1)N(C)c1ncnc2c(C(F)(F)F)cc(I)cc12 [P.184, 6-[5-[(1S)-1-[[6-iodo-8-(trifluoromethyl)quinazolin-4-yl]-methyl-amino]ethyl]-1,2,4-triazol-1-yl]pyridine-3-carbonitrile]
≥ 80%: percent control (mortality or growth inhibition) at 200 ppm [1] | percent control (mortality, anti-feedant effect or growth inhibition) at 200 ppm [2] | percent control (mortality or growth inhibition) at 200 ppm [3] | mortality at 200 ppm [4] | mortality at 12 ppm [5]

CC(c1ncnn1-c1ccc(C#N)cn1)N(C)c1ncnc2c(Br)cc(OC(F)(F)F)cc12 (stereo not shown) [P.217, 6-[5-[1-[[8-bromo-6-(trifluoromethoxy)quinazo-lin-4-yl]-methyl-amino]ethyl]-1,2,4-triazol-1-yl]pyridine-3-carbonitrile]
≥ 80%: percent control (mortality or growth inhibition) at 200 ppm [1] | percent control (mortality, anti-feedant effect or growth inhibition) at 200 ppm [2] | percent control (mortality or growth inhibition) at 200 ppm [3] | mortality at 200 ppm [4] | mortality at 12 ppm [5] | percent control (mortality, anti-feedant effect or growth inhibition) at 200 ppm [6]

CC(c1ncnn1-c1ccc(OC(F)F)cn1)N(C)c1ncnc2c(C(F)(F)F)cc(Cl)cc12 (stereo not shown) [P.236, 6-chloro-N-[1-[2-[5-(difluoromethoxy)-2-pyridyl]-1,2,4-triazol-3-yl]ethyl]-N-methyl-8-(trifluoromethyl)quinazolin-4-amine]
≥ 80%: percent control (mortality or growth inhibition) at 200 ppm [1] | percent control (mortality, anti-feedant effect or growth inhibition) at 200 ppm [2] | percent control (mortality or growth inhibition) at 200 ppm [3] | mortality at 200 ppm [4] | mortality at 12 ppm [5] | percent control (mortality, anti-feedant effect or growth inhibition) at 200 ppm [6]

CC(c1ncnn1-c1ncccn1)N(C)c1ncnc2c(Cl)c(F)c(Cl)cc12 (stereo not shown) [P.165, 6,8-dichloro-7-fluoro-N-methyl-N-[1-(2-pyrimidin-2-yl-1,2,4-triazol-3-yl)ethyl]quinazolin-4-amine]
≥ 80%: mortality at 200 ppm [4]

CC(c1ncnn1-c1ccc(F)cn1)N(C)c1ncnc2c(C(F)(F)F)cc(Br)cc12 (stereo not shown) [P.188, 6-bromo-N-[1-[2-(5-fluoro-2-pyridyl)-1,2,4-triazol-3-yl]ethyl]-N-methyl-8-(trifluoromethyl)quinazolin-4-amine]
≥ 80%: percent control (mortality or growth inhibition) at 200 ppm [1] | percent control (mortality or growth inhibition) at 200 ppm [7] | percent control (mortality, anti-feedant effect or growth inhibition) at 200 ppm [2] | percent control (mortality or growth inhibition) at 200 ppm [3] | mortality at 200 ppm [4] | mortality at 12 ppm [5]

C[C@H](Nc1ncnc2c(C(F)(F)F)cc(Cl)cc12)c1ncnn1-c1ncccn1 [P.24, 6-chloro-N-[(1S)-1-(2-pyrimidin-2-yl-1,2,4-triazol-3-yl)ethyl]-8-(trifluoromethyl)quinazolin-4-amine]
≥ 80%: percent control (mortality or growth inhibition) at 200 ppm [1] | percent control (mortality, anti-feedant effect or growth inhibition) at 200 ppm [2] | percent control (mortality or growth inhibition) at 200 ppm [3] | mortality at 200 ppm [4] | mortality at 12 ppm [5] | percent control (mortality, anti-feedant effect or growth inhibition) at 200 ppm [6]

CC(c1ncnn1-c1ncccn1)N(C)c1ncnc2c(Br)cc(Br)cc12 (stereo not shown) [P.258, 6,8-dibromo-N-methyl-N-[1-(2-pyrimidin-2-yl-1,2,4-triazol-3-yl)ethyl]quinazolin-4-amine]
≥ 80%: percent control (mortality or growth inhibition) at 200 ppm [1] | percent control (mortality, anti-feedant effect or growth inhibition) at 200 ppm [2] | percent control (mortality or growth inhibition) at 200 ppm [3] | mortality at 200 ppm [4] | mortality at 12 ppm [5] | percent control (mortality, anti-feedant effect or growth inhibition) at 200 ppm [6]

CC(c1ncnn1-c1ccc(C#N)cn1)N(C)c1ncnc2c(Br)cc(C(F)(F)F)cc12 (stereo not shown) [P.266, 6-[5-[1-[[8-bromo-6-(trifluoromethyl)quinazolin-4-yl]-methyl-amino]ethyl]-1,2,4-triazol-1-yl]pyridine-3-carbonitrile]
≥ 80%: percent control (mortality or growth inhibition) at 200 ppm [1] | percent control (mortality or growth inhibition) at 200 ppm [7] | percent control (mortality, anti-feedant effect or growth inhibition) at 200 ppm [2] | percent control (mortality or growth inhibition) at 200 ppm [3] | mortality at 12 ppm [5] | percent control (mortality, anti-feedant effect or growth inhibition) at 200 ppm [6]

C[C@@H](c1ncnn1-c1ccc(C(N)=S)cn1)N(C)c1ncnc2c(C(F)(F)F)cc(C(F)(F)F)cc12 [P.190, 6-[5-[(1S)-1-[[6,8-bis(trifluoromethyl)quinazolin-4-yl]-methyl-amino]ethyl]-1,2,4-triazol-1-yl]pyridine-3-carbothioamide]
≥ 80%: percent control (mortality or growth inhibition) at 200 ppm [1] | percent control (mortality or growth inhibition) at 200 ppm [7] | percent control (mortality, anti-feedant effect or growth inhibition) at 200 ppm [2] | percent control (mortality or growth inhibition) at 200 ppm [3] | mortality at 200 ppm [4] | mortality at 12 ppm [5]

C[C@@H](c1ncnn1-c1ncccn1)N(CC1CC1)c1ncnc2c(Cl)cc(C(F)(F)F)cc12 [P.272, 8-chloro-N-(cyclopropylmethyl)-N-[(1S)-1-(2-pyrimidin-2-yl-1,2,4-triazol-3-yl)ethyl]-6-(trifluoromethyl)quinazolin-4-amine]
≥ 80%: percent control (mortality or growth inhibition) at 200 ppm [1] | percent control (mortality or growth inhibition) at 200 ppm [7] | percent control (mortality, anti-feedant effect or growth inhibition) at 200 ppm [2] | percent control (mortality or growth inhibition) at 200 ppm [3] | mortality at 12 ppm [5] | percent control (mortality, anti-feedant effect or growth inhibition) at 200 ppm [6]

CC(Nc1nc(C(F)(F)F)nc2c(C(F)(F)F)cc(C(F)(F)F)cc12)c1ncnn1-c1ccc(C#N)cn1 (stereo not shown) [P.59, 6-[5-[1-[[2,6,8-tris(trifluoromethyl)quina-zolin-4-yl]amino]ethyl]-1,2,4-triazol-1-yl]pyridine-3-carbonitrile]
≥ 80%: mortality at 200 ppm [4]

CC(Nc1ncnc2c(C(F)(F)F)cc(C(F)(F)F)cc12)c1ncnn1-c1ncccn1 (stereo not shown) [P.16, N-[1-(2-pyrimidin-2-yl-1,2,4-triazol-3-yl)ethyl]-6,8-bis(trifluoromethyl)quinazolin-4-amine]
≥ 80%: percent control (mortality or growth inhibition) at 200 ppm [1] | percent control (mortality or growth inhibition) at 200 ppm [7] | percent control (mortality, anti-feedant effect or growth inhibition) at 200 ppm [2] | percent control (mortality or growth inhibition) at 200 ppm [3] | mortality at 12 ppm [5] | percent control (mortality, anti-feedant effect or growth inhibition) at 200 ppm [6]

COCN(c1ncnc2c(C(F)(F)F)cc(C(F)(F)F)cc12)[C@@H](C)c1ncnn1-c1ccc(C#N)cn1 [P.169, 6-[5-[(1S)-1-[[6,8-bis(trifluoromethyl)quina-zolin-4-yl]-(methoxymethyl)amino]ethyl]-1,2,4-triazol-1-yl]pyridine-3-carbonitrile]
≥ 80%: percent control (mortality or growth inhibition) at 200 ppm [1] | percent control (mortality or growth inhibition) at 200 ppm [7] | percent control (mortality, anti-feedant effect or growth inhibition) at 200 ppm [2] | percent control (mortality or growth inhibition) at 200 ppm [3] | mortality at 12 ppm [5] | percent control (mortality, anti-feedant effect or growth inhibition) at 200 ppm [6]

CC(c1ncnn1-c1ncccn1)N(C)c1ncnc2c(C(F)(F)F)cc(Br)cc12 (stereo not shown) [P.127, 6-bromo-N-methyl-N-[1-(2-pyrimidin-2-yl-1,2,4-triazol-3-yl)ethyl]-8-(trifluoromethyl)quinazolin-4-amine]
≥ 80%: percent control (mortality or growth inhibition) at 200 ppm [1] | percent control (mortality, anti-feedant effect or growth inhibition) at 200 ppm [2] | percent control (mortality or growth inhibition) at 200 ppm [3] | mortality at 200 ppm [4] | mortality at 12 ppm [5] | percent control (mortality, anti-feedant effect or growth inhibition) at 200 ppm [6]

— US20230002359A1, “PESTICIDALLY ACTIVE FUSED BICYCLIC HETEROAROMATIC COMPOUNDS” (priority 2019, published 2023)
